From patent publication US10189794B2, “Heteroaryl compounds and uses thereof” (Celgene CAR LLC, priority 2013, dated 2019)
“Also recorded” adds a separate entry of the source.

Assays:
Format in all cases: cell-based
[1] = target: T1, pFGFR4 in MDA-MB-453 cells (Homo sapiens (Human), UniProt P22455, Y367C); assay: FGFR4 signaling (phospho-FGFR4) in MDA-MB-453 cells; conditions: Method A immunoblotting (Western blotting), 1 hr treatment
Experimental: Huh7 cells were grown in DMEM (Invitrogen, Carlsbad, Calif.) supplemented with 10% FBS (Invitrogen) and 1% Penicillin-Streptomycin (P/S, Lonza, Walkersville, Md.).
For the MSD and ELISA assays, total FGFR4 antibodies were obtained from R&D Systems (Minneapolis, Minn.) and used at 1:500. For the immunoblotting (Western blotting) assay, total FGFR4 antibody was obtained from Santa Cruz (Santa Cruz, Calif.) and used at 1:1000. Phospho-FGFR antibodies were obtained from Cell Signaling (Danvers, Mass.) or R&D Systems and used at 1:1000. The phopho-FGFR antibody from Cell Signaling was used for immunoblotting, whereas the phopho-FGFR antibody from R&D was used for MSD and ELISA assays. Secondary antibodies were used at 1:10,000. The goat anti-mouse IgG IRDye 800CW antibody was obtained from LiCor Biosciences (Lincoln, Nebr.) and the goat anti-rabbit IgG Alexa Fluor 680 was obtained from Invitrogen. The anti-rabbit Sulfo-tag and anti-streptavidin Sulfo-tag antibodies was obtained from Meso Scale Discovery (Gaithersburg, Md.), and were used at 1:1000 and 1:5000, respectively.
For MDA-MB-453 cells signaling, cells were grown in 96-well poly-D-lysine plates (BD Bioscience, San Jose, Calif.) to 90% confluence, and were then incubated in low-serum (0.1% FBS) media for 16-18 hr. […] After treatment, the cells were washed with cold PBS (Invitrogen) and were immediately lysed by freeze/thawing 3× in 32 μL of cold Cell Extraction Buffer (Invitrogen) which was supplemented with Complete Protease inhibitors (Roche, Indianapolis, Ind.) and PhosphoSTOP (Roche) phosphatase inhibitors.
Phospho-protein signals were quantitated using Odyssey Infrared Imaging (Li-Cor Biosciences).
To assess phospho-FGFR signaling, the blots were probed with anti-Phospho-FGFR (Y653/Y654) and total anti-FGFR antibodies. The phospho-FGFR signal was normalized to total FGFR expression for each sample. […] The normalized data was fitted using a sigmoidal curve analysis program (Graph Pad Prism version 5) with variable Hill slope to determine the EC50 values.
After treatment, the cells were washed with cold PBS (Invitrogen), and were immediately lysed by freeze/thawing 3× in 32 μL of cold Cell Extraction Buffer (Invitrogen), which was supplemented with Complete Protease inhibitors (Roche) and PhosphoSTOP (Roche) phosphatase inhibitors.
MSD plates (Meso Scale Discovery) were coated with total FGFR-4 antibodies overnight at 4° C. A lysate (25 μL) was added to the MSD plate overnight at 4° C. The MSD signals were obtained by incubating with a phospho-FGFR antibody (R&D Systems) and an anti-rabbit sulfo-tag antibody (Meso Scale), for 2 hr at room temperature. […] The data was fitted using a sigmoidal curve analysis program (Graph Pad Prism version 5) with variable Hill slope to determine the EC50 values.
MDA-MB-453 cells were grown in 96-well poly-D-lysine plates (BD Bioscience, San Jose, Calif.) to 90% confluence. The cells were then incubated in low-serum (0.1% FBS) media for 16-18 hr. […] After treatment, the MDA-MB-453 cells were washed with cold PBS (Invitrogen) and were immediately lysed by freeze/thawing 3× in 32 μL of cold Cell Extraction Buffer (Invitrogen), which was supplemented with Complete Protease inhibitors (Roche) and PhosphoSTOP (Roche) phosphatase inhibitors.
Nunc-immuno plates (96-well; Sigma, St. Louis, Mo.) were coated with total FGFR-4 antibodies overnight at 4° C. A lysate (25 μL) was added to the plate for 2 hr at room temperature. A phospho-FGFR detection antibody (100 μL) was added per well for 2 hr at room temperature, followed by a goat anti-rabbit HRP antibody (100 μL) for 45 min. […] The data was fitted using a sigmoidal curve analysis program (Graph Pad Prism version 5) with variable Hill slope to determine the EC50 values.

[2] = test system: MDA-MB-453 cells; assay: Cell proliferation, MDA-MB-453 (CellTiter Glo); conditions: Homo sapiens; MDA-MB-453; 96 hr; read-out: Cell Proliferation GI50 (nM) MDA
[3] = target: FGFR4 in MDA-MB-453 cells (Homo sapiens (Human), UniProt P22455, Y367C); assay: Target occupancy assay with biotinylated covalent probe I-127; conditions: MDA-MB-453 lysate; 2 μM biotinylated probe I-127
Experimental: In order to assess free FGFR4 protein a biotinylated covalent probe was utilized. […] The reaction was incubated for 2 hr at room temperature. The samples and probe mixture were transferred to a FGFR4-coated MSD plate for 2 hr at room temperature. MSD signals were obtained with an anti-streptavidin Sulfo-tag (Meso Scale) antibody for 1 hr at room temperature.
If a compound completely (100%) covalently modies FGFR4 no free FGFR4 should be available for covalent modification by the biotinylated probe and subsequent binding to streptavidin and detection.

[4] = target: T1, pFGFR4 in MDA-MB-453 cells; assay: Washout experiment (duration of pFGFR4 inhibition); conditions: 1000-2000 nM for 1 hr, washed, up to 24 hr
Experimental: The cells were allowed to settle down for 4 hrs and were then maintained in low-serum (0.1% FBS) media overnight.
The following morning, the media was removed and the cells were treated with 1000-2000 nM of test compound in low-serum media for 1 hr. The cells were washed free of test compound (3×) with PBS (Invitrogen). One set of cells was immediately lysed as indicated above as the 0 hr time point. The remaining cells were incubated with the appropriate complete growth media (10-20% FBS) for 1, 2, 4, 8, 16 (in certain circumstances) and 24 hr. DMSO (0.5%) controls were collected at all time points.

T1 sequence (P22455 22-802 Y367C): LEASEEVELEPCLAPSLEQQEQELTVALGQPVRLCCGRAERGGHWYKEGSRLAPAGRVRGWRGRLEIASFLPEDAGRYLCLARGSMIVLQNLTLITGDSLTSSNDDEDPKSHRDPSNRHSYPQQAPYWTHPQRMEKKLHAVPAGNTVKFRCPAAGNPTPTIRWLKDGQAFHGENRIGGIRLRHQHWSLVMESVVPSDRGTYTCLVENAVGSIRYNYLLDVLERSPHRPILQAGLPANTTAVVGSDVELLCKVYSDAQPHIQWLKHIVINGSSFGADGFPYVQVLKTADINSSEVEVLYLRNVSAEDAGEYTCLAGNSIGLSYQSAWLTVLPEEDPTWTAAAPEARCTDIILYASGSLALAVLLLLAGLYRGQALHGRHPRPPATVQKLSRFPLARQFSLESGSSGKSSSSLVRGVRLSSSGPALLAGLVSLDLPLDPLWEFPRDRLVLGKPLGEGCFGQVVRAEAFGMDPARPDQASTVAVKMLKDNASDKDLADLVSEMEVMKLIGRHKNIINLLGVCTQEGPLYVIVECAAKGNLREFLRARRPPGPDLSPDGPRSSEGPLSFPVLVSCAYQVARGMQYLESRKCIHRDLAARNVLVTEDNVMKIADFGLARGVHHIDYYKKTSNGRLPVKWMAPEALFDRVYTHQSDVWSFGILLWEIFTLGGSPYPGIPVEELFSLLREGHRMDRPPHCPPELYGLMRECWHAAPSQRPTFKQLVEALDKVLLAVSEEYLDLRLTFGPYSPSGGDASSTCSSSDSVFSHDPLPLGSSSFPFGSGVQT
Sequence of FGFR4 in MDA-MB-453 cells (P22455 22-802 Y367C): as above

CCC(=O)Nc1cccc(CN2C(=O)N(c3c(Cl)c(OC)cc(OC)c3Cl)Cc3cnc(Nc4ccccc4NC(=O)CC)nc32)c1 [I-234]
EC50 [1]: 101 to 500 nM
GI50 [2]: > 1000 nM
EC50 [3]: > 1000 nM
duration of action against pFGFR4 signalling after washout [4]: does not show prolonged duration of action; also recorded: does not have PDA
